Results: patent publication US5977133A, “Pyridone antibiotic with improved safety profile” (priority 1998, dated 1999)
Counter-ions that a name gives are not always drawn.

How the values were obtained:
Assay type in all cases: cell-based
S. pyogenes = experiment: In vitro MIC, agar dilution; settings: Streptococcus pyogenes
M. catarrhalis = experiment: In vitro MIC, agar dilution; settings: Moraxella catarrhalis
H. pylori = experiment: In vitro MIC, agar dilution; settings: Helicobacter pylori
S. aureus (CiproR) = experiment: In vitro MIC, agar dilution; settings: Staphylococcus aureus
M. avium = experiment: In vitro MIC, agar dilution; settings: Mycobacterium avium
S. epidermidis (CiproS) = experiment: In vitro MIC, agar dilution; settings: Staphylococcus epidermidis
P. mirabilis = experiment: In vitro MIC, agar dilution; settings: Proteus mirabilis
Salmonella spp. = experiment: In vitro MIC, agar dilution; settings: 23 isolates
How it was run: (§1)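 MIC, the lowest compound level without growth versus a drug-free BHI control plate, with faint haze or scattered colonies scored as no growth. About 10^4 CFU was replicator-spotted from 1:100 dilutions, or 1:10 for slow-growing strains, and plates were read after ~20–24 h at 35–37 °C.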

E. coli = experiment: In vitro MIC, agar dilution; settings: Escherichia coli, 25 isolates
How it was run: as §1

Klebsiella spp. = experiment: In vitro MIC, agar dilution
C. difficile = experiment: In vitro MIC, agar dilution; settings: Clostridioides difficile
N. gonorrhoeae = experiment: In vitro MIC, agar dilution; settings: Neisseria gonorrhoeae
Shigella spp. = experiment: microbe, parasite or virus in culture; settings: read-out: MIC Range
P. aeruginosa (CiproS) = experiment: In vitro MIC, agar dilution; settings: Pseudomonas aeruginosa, P. aeruginosa (CiproS), 24 isolates
H. influenzae = experiment: In vitro MIC, agar dilution; settings: Haemophilus influenzae, H. influenzae, 18 isolates
P. aeruginosa (CiproR) = experiment: In vitro MIC, agar dilution; settings: Pseudomonas aeruginosa, P. aeruginosa (CiproR), 20 isolates
S. pneumoniae (PenR) = experiment: In vitro MIC, agar dilution; settings: Streptococcus pneumoniae
E. faecium (CiproR) = experiment: In vitro MIC, agar dilution; settings: Enterococcus faecium; E. faecium (CiproR), 2 isolates; read-out: MIC Range
B. fragilis = experiment: In vitro MIC, agar dilution; settings: Bacteroides fragilis
C. freundii = experiment: In vitro MIC, agar dilution; settings: Citrobacter freundii
Legionella spp. = experiment: microbe, parasite or virus in culture; settings: Legionella
S. epidermidis (CiproR) = experiment: In vitro MIC, agar dilution; settings: Staphylococcus epidermidis
S. pneumoniae (CiproR) = experiment: In vitro MIC, agar dilution; settings: Streptococcus pneumoniae, read-out: MIC Range
M. pneumoniae = experiment: In vitro MIC, agar dilution; settings: Mycoplasmoides pneumoniae; M. pneumoniae, 7 isolates; read-out: MIC Range
Providencia spp. = experiment: In vitro MIC, agar dilution
E. faecium (CiproS) = experiment: In vitro MIC, agar dilution; settings: Enterococcus faecium
E. faecalis (VanS) = experiment: In vitro MIC, agar dilution; settings: Enterococcus faecalis
S. aureus (CiproS) = experiment: In vitro MIC, agar dilution; settings: Staphylococcus aureus
C. perfringens = experiment: microbe, parasite or virus in culture; settings: Clostridium perfringens
Enterobacter spp. = experiment: In vitro MIC, agar dilution

In the case of `Cc1c(N2C[C@@H](N)C3(CC3)C2)c(F)cn2c(=O)c(C(=O)O)cc(C3CC3)c12` [Example 5, 1-cyclopropyl-8-(7(S)-amino-5-azaspiror2.41heptvl)-7-fluoro-9-methyl4-oxo-4H-quinolizine-3-carboxylic acid hydrochloride], the MIC50 (S. pyogenes) is reported as 0.03 µg/mL, the MIC90 (S. pyogenes) is reported as 0.03 µg/mL and the MIC (S. pyogenes; S. pyogenes, 21 isolates, read-out: MIC Range) is reported as 0.015 to 0.06 µg/mL. The MIC90 (M. catarrhalis) was 0.03 µg/mL, the MIC50 (M. catarrhalis; M. catarrhalis, 18 isolates, read-out: MIC50) was 0.015 µg/mL and the MIC (M. catarrhalis; M. catarrhalis, 18 isolates, read-out: MIC Range) was 0.015 to 0.03 µg/mL. For the same compound, the MIC50 (H. pylori) was 0.03 µg/mL, the MIC90 (H. pylori) was 0.06 µg/mL and the MIC (H. pylori; H. pylori, 17 isolates, read-out: MIC Range) was 0.015 to 0.06 µg/mL. The MIC90 (S. aureus (CiproR)) was 0.25 µg/mL, the MIC50 (S. aureus (CiproR); S. aureus (CiproR), 25 isolates, read-out: MIC50) was 0.12 µg/mL and the MIC (S. aureus (CiproR); S. aureus (CiproR), 25 isolates, read-out: MIC Range) was 0.03 to 0.5 µg/mL. For the same compound, the MIC (M. avium; read-out: MIC Range) was 0.25 to 4 µg/mL, the MIC50 (M. avium; M. avium, 20 isolates, read-out: MIC50) was 1 µg/mL and the MIC90 (M. avium; M. avium, 20 isolates, read-out: MIC90) was 2 µg/mL. It also gave an MIC90 (S. epidermidis (CiproS)) of 0.03 µg/mL, an MIC50 (S. epidermidis (CiproS); S. epidermidis (CiproS), 23 isolates, read-out: MIC50) of 0.015 µg/mL and an MIC (S. epidermidis (CiproS); S. epidermidis (CiproS), 23 isolates, read-out: MIC Range) of 0.004 to 0.03 µg/mL. For the same compound, the MIC50 (P. mirabilis) was 0.03 µg/mL, the MIC90 (P. mirabilis) was 0.06 µg/mL and the MIC (P. mirabilis; read-out: MIC Range) was 0.015 to 0.12 µg/mL. For the same compound, the MIC (Salmonella spp.) was 0.004 to 0.12 µg/mL, the MIC50 (Salmonella spp.; read-out: MIC50) was 0.015 µg/mL and the MIC90 (Salmonella spp.; read-out: MIC90) was 0.03 µg/mL. For the same compound, the MIC (E. coli) was 0.004 to 0.015 µg/mL, the MIC50 (E. coli; read-out: MIC50) was at most 0.004 µg/mL and the MIC90 (E. coli; read-out: MIC90) was 0.015 µg/mL. The MIC50 (Klebsiella spp.; Klebsiella) was 0.03 µg/mL, the MIC90 (Klebsiella spp.; Klebsiella) was 0.06 µg/mL and the MIC (Klebsiella spp.; Klebsiella spp., 29 isolates, read-out: MIC Range) was 0.002 to 0.12 µg/mL. For the same compound, the MIC90 (C. difficile) was 0.25 µg/mL, the MIC (C. difficile; read-out: MIC Range) was 0.12 to 0.25 µg/mL and the MIC50 (C. difficile; C. difficile, 10 isolates, read-out: MIC50) was 0.25 µg/mL. For the same compound, the MIC90 (N. gonorrhoeae) was 0.015 µg/mL, the MIC50 (N. gonorrhoeae; N. gonorrhoeae, 12 isolates, read-out: MIC50) was 0.002 µg/mL and the MIC (N. gonorrhoeae; N. gonorrhoeae, 12 isolates, read-out: MIC Range) was 0.002 to 0.015 µg/mL. It also gave an MIC (Shigella spp.) of 0.001 to 0.008 µg/mL, an MIC50 (P. aeruginosa (CiproS); read-out: MIC50) of 0.12 µg/mL and an MIC90 (P. aeruginosa (CiproS); read-out: MIC90) of 1 µg/mL. It also gave an MIC (P. aeruginosa (CiproS); read-out: MIC Range) of 0.06 to 1 µg/mL, an MIC50 (H. influenzae; read-out: MIC50) of 0.002 µg/mL and an MIC90 (H. influenzae; read-out: MIC90) of 0.008 µg/mL. For the same compound, the MIC (H. influenzae; read-out: MIC Range) was 0.001 to 0.008 µg/mL, the MIC50 (P. aeruginosa (CiproR); read-out: MIC50) was 8 µg/mL and the MIC90 (P. aeruginosa (CiproR); read-out: MIC90) was 16 µg/mL. For the same compound, the MIC (P. aeruginosa (CiproR); read-out: MIC Range) was 4 to 16 µg/mL, the MIC90 (S. pneumoniae (PenR)) was 0.06 µg/mL and the MIC50 (S. pneumoniae (PenR); S. pneumoniae (PenR), 25 isolates, read-out: MIC50) was 0.06 µg/mL. For the same compound, the MIC (S. pneumoniae (PenR); S. pneumoniae (PenR), 25 isolates, read-out: MIC Range) was 0.03 to 0.06 µg/mL, the MIC (E. faecium (CiproR)) was 0.5 to 4 µg/mL and the MIC50 (B. fragilis) was 0.03 µg/mL. It also gave an MIC90 (B. fragilis) of 0.03 µg/mL, an MIC (B. fragilis; B. fragilis, 18 isolates, read-out: MIC Range) of 0.015 to 0.06 µg/mL and an MIC90 (C. freundii) of 0.12 µg/mL. It also gave an MIC50 (C. freundii; C. freundii, 20 isolates, read-out: MIC50) of 0.015 µg/mL, an MIC (C. freundii; C. freundii, 20 isolates, read-out: MIC Range) of 0.008 to 0.12 µg/mL and an MIC50 (Legionella spp.) of 0.25 µg/mL. For the same compound, the MIC90 (Legionella spp.) was 0.25 µg/mL, the MIC (Legionella spp.; read-out: MIC Range) was 0.12 to 0.25 µg/mL and the MIC90 (S. epidermidis (CiproR)) was 0.25 µg/mL. It also gave an MIC (S. epidermidis (CiproR); read-out: MIC Range) of 0.12 to 1 µg/mL, an MIC50 (S. epidermidis (CiproR); S. epidermidis (CiproR), 11 isolates, read-out: MIC50) of 0.25 µg/mL and an MIC (S. pneumoniae (CiproR)) of 0.06 to 0.12 µg/mL. It also gave an MIC (M. pneumoniae) of 0.015 to 0.03 µg/mL, an MIC90 (Providencia spp.; Providencia) of 0.06 µg/mL and an MIC50 (Providencia spp.; Providencia spp., 28 isolates, read-out: MIC50) of 0.015 µg/mL. It also gave an MIC (Providencia spp.; Providencia spp., 28 isolates, read-out: MIC Range) of 0.008 to 0.25 µg/mL, an MIC90 (E. faecium (CiproS)) of 0.5 µg/mL and an MIC (E. faecium (CiproS); read-out: MIC Range) of 0.25 to 0.5 µg/mL. The MIC50 (E. faecium (CiproS); E. faecium (CiproS), 16 isolates, read-out: MIC50) was 0.5 µg/mL, the MIC90 (E. faecalis (VanS)) was 0.25 µg/mL and the MIC (E. faecalis (VanS); read-out: MIC Range) was 0.06 to 0.25 µg/mL. The MIC50 (E. faecalis (VanS); E. faecalis (VanS), 17 isolates, read-out: MIC50) was 0.12 µg/mL, the MIC90 (S. aureus (CiproS)) was 0.015 µg/mL and the MIC50 (S. aureus (CiproS); S. aureus (CiproS), 21 isolates, read-out: MIC50) was 0.015 µg/mL. For the same compound, the MIC (S. aureus (CiproS); S. aureus (CiproS), 21 isolates, read-out: MIC Range) was 0.008 to 0.03 µg/mL, the MIC50 (C. perfringens) was 0.06 µg/mL and the MIC90 (C. perfringens; C. perfringens, 13 isolates) was 0.12 µg/mL. For the same compound, the MIC (C. perfringens; read-out: MIC Range) was 0.06 to 0.12 µg/mL, the MIC90 (Enterobacter spp.; Enterobacter) was 0.03 µg/mL and the MIC50 (Enterobacter spp.; Enterobacter spp., 35 isolates, read-out: MIC50) was 0.015 µg/mL. It also gave an MIC (Enterobacter spp.; Enterobacter spp., 35 isolates, read-out: MIC Range) of 0.004 to 0.12 µg/mL.
